Experimental data: US10287295B2, “TGF-β inhibitors” (Rigel Pharmaceuticals, Inc., priority 2015, dated 2019)

Legend:
[1] = tested on: GDF8 signaling (GDF pSMAD, MPC11); test: AlphaScreen SureFire SMAD3 (p-Ser423/425) assay, inhibition of GDF8 signaling; format: cell-based; settings: Mus musculus, MPC-11, inhibition of GDF8 signaling, p-SMAD3 readout
[2] = tested on: TGF-β signaling (TGF-β pSMAD, MPC-11); test: AlphaScreen SureFire SMAD3 (p-Ser423/425) assay, inhibition of TGF-β signaling; format: cell-based; settings: Mus musculus, MPC-11, inhibition of TGF-β signaling, p-SMAD3 readout

SMILES	IC50 [1] [µM]	IC50 [2] [µM]
CCc1nc(-c2cccc(Cl)c2)c(-c2ccc3ncccc3c2)[nH]1 [Compound 128, 6-(4-(3-Chlorophenyl)-2-ethyl-1H-imidazol-5-yl)quinoline]	0.46	1.48
CCc1nc(-c2cccc(Cl)c2)c(-c2ccc3ncsc3c2)[nH]1 [Compound 126, 6-(4-(3-Chlorophenyl)-2-ethyl-1H-imidazol-5-yl)benzo[d]thiazole]	0.09	0.34
Cc1cc(-c2nc(N)sc2-c2ccc3ncsc3c2)ccc1F [Compound 162, 5-(benzo[d]thiazol-6-yl)-4-(4-fluoro-3-methylphenyl)thiazol-2-amine]	0.0523	0.127
Cc1nc(-c2cccc(Cl)c2)c(-c2ccc3nccn3c2)[nH]1 [Compound 104, 6-(4-(3-Chlorophenyl)-2-methyl-1H-imidazol-5-yl)imidazo[1,2-a]pyridine]	0.08	0.51
Cc1cc(-c2nc(C)n(C)c2-c2ccc3ncsc3c2)ccc1F [Compound 55, 6-(4-(4-Fluoro-3-methylphenyl)-1,2-dimethyl-1H-imidazol-5-yl)benzo[d]thiazole]	0.84	7.76
CCc1nc(-c2cccc(Cl)c2)c(-c2ccc3nccnc3c2)[nH]1 [Compound 129, 6-(4-(3-Chlorophenyl)-2-ethyl-1H-imidazol-5-yl)quinoxaline]	0.29	1.34
Cc1cccc(-c2nc(C(C)C)[nH]c2-c2ccc3ncnn3c2)c1 [Compound 152, 6-(2-Isopropyl-4-(m-tolyl)-1H-imidazol-5-yl)-[1,2,4]triazolo[1,5-a]pyridine]	0.19	0.38
Cc1nc(-c2ccc(F)c(F)c2)c(-c2ccc3ncsc3c2)[nH]1 [Compound 86, 6-(4-(3,4-Difluorophenyl)-2-methyl-1H-imidazol-5-yl)benzo[d]thiazole]	0.22	1.28
Nc1nc(-c2cccc(F)c2)c(-c2ccc3nccn3c2)s1 [Compound 187, 4-(3-fluorophenyl)-5-(imidazo[1,2-a]pyridin-6-yl)thiazol-2-amine]	0.481	3.1
CCc1nc(-c2ccc(F)c(C)c2)c(-c2ccc3nccn3c2)[nH]1 [Compound 110, 6-(2-Ethyl-4-(4-fluoro-3-methylphenyl)-1H-imidazol-5-yl)imidazo[1,2-a]pyridine]	0.25	1.05
Cc1nc(-c2cc(F)c(F)c(F)c2)c(-c2ccc3nccnc3c2)[nH]1 [Compound 96, 6-(2-Methyl-4-(3,4,5-trifluorophenyl)-1H-imidazol-5-yl)quinoxaline]	0.44	2.43
CCc1nc(-c2cc(C)cc(F)c2)c(-c2ccc3nccnc3c2)[nH]1 [Compound 147, 6-(2-Ethyl-4-(3-fluoro-5-methylphenyl)-1H-imidazol-5-yl)quinoxaline]	0.55	2.21
FC(F)(F)c1nc(-c2cccc(Cl)c2)c(-c2ccc3ncnn3c2)[nH]1 [Compound 150, 6-(4-(3-Chlorophenyl)-2-(trifluoromethyl)-1H-imidazol-5-yl)-[1,2,4]triazolo[1,5-a]pyridine]	0.35	0.85
CCc1nc(-c2ccc(F)c(F)c2)c(-c2ccc3ncnn3c2)[nH]1 [Compound 132, 6-(4-(3,4-Difluorophenyl)-2-ethyl-1H-imidazol-5-yl)-[1,2,4]triazolo[1,5-a]pyridine]	0.55	1.39
Cc1cc(-c2ncn(C)c2-c2ccc3nccnc3c2)ccc1F [Compound 21, 6-(4-(4-Fluoro-3-methylphenyl)-1-methyl-1H-imidazol-5-yl)quinoxaline]	0.38	0.74
Cc1cccc(-c2nc(C)n(C)c2-c2ccc3cn[nH]c3c2)c1 [Compound 57, 6-(1,2-Dimethyl-4-(m-tolyl)-1H-imidazol-5-yl)-1H-indazole]	0.71	9.21
Cc1cc(-c2ncn(C)c2-c2ccc3ncn(C)c3c2)ccc1F [Compound 8, 6-(4-(4-Fluoro-3-methylphenyl)-1-methyl-1H-imidazol-5-yl)-1-methyl-1H-benzo[d]imidazole]	0.09	0.21
CCc1nc(-c2ccc(F)c(F)c2)c(-c2ccc3ncsc3c2)[nH]1 [Compound 133, 6-(4-(3,4-Difluorophenyl)-2-ethyl-1H-imidazol-5-yl)benzo[d]thiazole]	0.36	2.21
CCc1nc(-c2cccc(F)c2)c(-c2ccc3ncsc3c2)[nH]1 [Compound 137, 6-(2-Ethyl-4-(3-fluorophenyl)-1H-imidazol-5-yl)benzo[d]thiazole]	0.57	2.54
CCc1nc(-c2cccc(Cl)c2)c(-c2ccc3nccn3c2)[nH]1 [Compound 127, 6-(4-(3-Chlorophenyl)-2-ethyl-1H-imidazol-5-yl)imidazo[1,2-a]pyridine]	0.19	0.57

Continued, values first:

IC50 [1] [µM]	IC50 [2] [µM]	SMILES
0.0256	0.16	COc1ccc(-c2nc(N)sc2-c2ccc3[nH]ncc3c2)cc1 [Compound 157, 5-(1H-indazol-5-yl)-4-(4-methoxyphenyl)thiazol-2-amine]
0.124	0.898	COc1ccc(-c2nc(N)sc2-c2ccc3cn[nH]c3c2)cc1 [Compound 173, 5-(1H-indazol-6-yl)-4-(4-methoxyphenyl)thiazol-2-amine]
0.01	0.06	Fc1ccc(-c2nc[nH]c2-c2ccc3[nH]ncc3c2)cc1 [Compound 10, 5-(4-(4-Fluorophenyl)-1H-imidazol-5-yl)-1H-indazole]
0.19	0.39	Clc1cccc(-c2nc[nH]c2-c2ccc3ncccc3c2)c1 [Compound 39, 6-(4-(3-Chlorophenyl)-1H-imidazol-5-yl)quinoline]
0.5	1.48	Fc1ccc(-c2nc[nH]c2-c2ccc3ncccc3c2)cc1F [Compound 36, 6-(4-(3,4-Difluorophenyl)-1H-imidazol-5-yl)quinoline]
0.29	2.47	Cc1nc(-c2ccc(F)cc2)c(-c2ccc3cn[nH]c3c2)[nH]1 [Compound 78, 6-(4-(4-Fluorophenyl)-2-methyl-1H-imidazol-5-yl)-1H-indazole]
0.04	0.13	Fc1ccc(-c2nc[nH]c2-c2ccc3cn[nH]c3c2)cc1 [Compound 11, 6-(4-(4-Fluorophenyl)-1H-imidazol-5-yl)-1H-indazole]
0.09	0.12	Fc1cccc(-c2nc[nH]c2-c2ccc3[nH]ncc3c2)c1 [Compound 27, 5-(4-(3-Fluorophenyl)-1H-imidazol-5-yl)-1H-indazole]
0.12	0.38	Fc1ccc(-c2nc[nH]c2-c2ccc3ncsc3c2)cc1 [Compound 13, 6-(4-(4-Fluorophenyl)-1H-imidazol-5-yl)benzo[d]thiazole]
0.14	1.77	COc1ccc(-c2ncn(C)c2-c2ccc3[nH]ncc3c2)cc1 [Compound 69, 5-(4-(4-Methoxyphenyl)-1-methyl-1H-imidazol-5-yl)-1H-indazole]
0.04	0.15	Cc1cccc(-c2nc[nH]c2-c2ccc3ncsc3c2)c1 [Compound 18, 6-(4-(m-Tolyl)-1H-imidazol-5-yl)benzo[d]thiazole]
0.235	1.03	COc1cccc(-c2nc(N)sc2-c2ccc3[nH]ncc3c2)c1 [Compound 177, 5-(1H-indazol-5-yl)-4-(3-methoxyphenyl)thiazol-2-amine]
0.02	0.09	Fc1ccc(-c2nc[nH]c2-c2ccc3[nH]ncc3c2)cc1F [Compound 31, 5-(4-(3,4-Difluorophenyl)-1H-imidazol-5-yl)-1H-indazole]
0.05	0.14	Cc1cccc(-c2nc[nH]c2-c2ccc3ncn(C)c3c2)c1 [Compound 17, 1-Methyl-6-(4-(m-tolyl)-1H-imidazol-5-yl)-1H-benzo[d]imidazole]
0.22	0.26	Clc1cccc(-c2nc[nH]c2-c2ccc3nccn3c2)c1 [Compound 26, 6-(4-(3-Chlorophenyl)-1H-imidazol-5-yl)imidazo[1,2-a]pyridine]
0.65	2.03	CCc1nc(-c2cc(F)cc(Cl)c2)c(-c2ccc3[nH]ncc3c2)[nH]1 [Compound 139, 5-(4-(3-Chloro-5-fluorophenyl)-2-ethyl-1H-imidazol-5-yl)-1H-indazole]
0.0145	0.116	Cc1cccc(-c2ncsc2-c2ccc3[nH]ncc3c2)c1 [Compound 154, 5-(1H-indazol-5-yl)-4-(m-tolyl)thiazole]
0.13	1.33	Cc1nc(-c2ccc(F)c(F)c2)c(-c2ccc3[nH]ncc3c2)[nH]1 [Compound 83, 5-(4-(3,4-Difluorophenyl)-2-methyl-1H-imidazol-5-yl)-1H-indazole]
0.34	1.85	CCc1nc(-c2ccc(F)c(C)c2)c(-c2ccc3cn[nH]c3c2)[nH]1 [Compound 107, 6-(2-Ethyl-4-(4-fluoro-3-methylphenyl)-1H-imidazol-5-yl)-1H-indazole]
0.57	1.21	Cn1cnc(-c2ccc(F)cc2)c1-c1ccc2cn[nH]c2c1 [Compound 49, 6-(4-(4-Fluorophenyl)-1-methyl-1H-imidazol-5-yl)-1H-indazole]
0.121	0.909	Nc1nc(-c2cccc(Cl)c2)c(-c2ccc3cn[nH]c3c2)s1 [Compound 172, 4-(3-chlorophenyl)-5-(1H-indazol-6-yl)thiazol-2-amine]
1.02	11.5	Cc1nc(-c2ccc(F)c(F)c2)c(-c2ccc3ncccc3c2)[nH]1 [Compound 88, 6-(4-(3,4-Difluorophenyl)-2-methyl-1H-imidazol-5-yl)quinoline]
0.67	4.39	CCc1nc(-c2cc(C)cc(F)c2)c(-c2ccc3[nH]ncc3c2)[nH]1 [Compound 142, 5-(2-Ethyl-4-(3-fluoro-5-methylphenyl)-1H-imidazol-5-yl)-1H-indazole]
